{"source": "a melting point compilation (Tetko et al.)"}
{"details": "a range is the spread between reports", "units": {"melting point": "°C"}}
{"smiles": "Cc1cc(C)cc(C(=O)O)c1", "melting point": "170 to 171"}
{"smiles": "O=[N+]([O-])c1ccc(Oc2ccc(Cl)cc2Cl)cc1", "melting point": "70 to 70.5"}
{"smiles": "CN(C)c1cccc([N+](=O)[O-])c1", "melting point": "59 to 60.5"}
{"smiles": "N#CI", "melting point": "146 to 147"}
{"smiles": "Nc1ccc2cc3ccccc3cc2c1", "melting point": "235 to 239"}
{"smiles": "CCC(Br)CBr", "note": "(stereo unspecified)", "melting point": "-65.4 to -65"}
{"smiles": "ClC(Cl)c1ccccc1", "melting point": "-17 to -16"}
{"smiles": "CC(=O)CCC=C(C)C", "melting point": "-67.1 to -67"}
{"smiles": "CC(CCC(=O)O)C1CCC2C3C(O)CC4CC(O)CCC4(C)C3CC(O)C12C", "note": "(stereo unspecified)", "melting point": "198 to 201"}
{"smiles": "NC(=O)c1ccc(N)nc1", "melting point": "246 to 247"}
{"smiles": "O=Cc1ccc[nH]1", "melting point": "43 to 46.5"}
{"smiles": "C=CBr", "melting point": "-139 to -138"}
{"smiles": "CCCCCCCCCCCl", "melting point": "-31.3 to -31"}
{"smiles": "Nc1nccs1", "melting point": "90 to 93"}
{"smiles": "CCCCCCCCCCCCCC(N)=O", "melting point": "104 to 106"}
{"smiles": "Cc1ccccc1Cl", "melting point": "-36 to -35"}
{"smiles": "CC(=O)Nc1ccc(Cl)cc1F", "melting point": "155 to 157"}
{"smiles": "COc1ccc(C=Nc2ccccc2)cc1", "melting point": "61 to 65"}
{"smiles": "CCCCCCCCCCCCCCCCCCCCC", "melting point": "39 to 41"}
{"smiles": "NCCCCNCCCN", "melting point": "23.5 to 24"}
{"smiles": "c1ccc(-c2ccc(-c3ccccc3)cc2)cc1", "melting point": "210 to 214"}
{"smiles": "O=[N+]([O-])c1ccccc1I", "melting point": "50 to 54"}
{"smiles": "COc1ccc(Cl)c(Cl)c1Cl", "melting point": "69 to 70"}
{"smiles": "O=[N+]([O-])c1ccccc1O", "melting point": "44 to 46"}
{"smiles": "Nc1ccc(C(=O)c2ccccc2)cc1", "melting point": "122 to 123"}
{"smiles": "CC(=O)Nc1ccc(F)cc1", "melting point": "152 to 154"}
{"smiles": "Cc1ccc(CC(=O)O)cc1", "melting point": "92 to 93"}
{"smiles": "O=CO", "melting point": "8 to 8.32"}
{"smiles": "CCCCCCCCCCCCBr", "melting point": "-10 to -9.5"}
{"smiles": "O=C(O)CBr", "melting point": "47 to 50"}
{"smiles": "COc1c(Cl)cc(Cl)cc1Cl", "melting point": "61 to 61.5"}
{"smiles": "CC(F)(F)F", "melting point": -111}
{"smiles": "Nc1ccncc1", "melting point": "158 to 159"}
{"smiles": "Cc1ccc2cccc([N+](=O)[O-])c2n1", "melting point": "138 to 140"}
{"smiles": "CCCCCC(=O)CCCCC", "melting point": "14.5 to 15"}
{"smiles": "CC1CCC2CC1C2(C)C", "note": "(stereo unspecified)", "melting point": "-53 to -50"}
{"smiles": "COc1cccc(C#N)c1OC", "melting point": "44.5 to 46"}
{"smiles": "O=C1OC(=O)c2cc(Cl)c(Cl)cc21", "melting point": "186 to 188"}
{"smiles": "O=[N+]([O-])C(Br)(CO)CO", "melting point": "127 to 132"}
{"smiles": "CCCCP(=O)(CCCC)CCCC", "melting point": "64 to 67"}
{"smiles": "O=C(Cl)c1cccc(C(=O)Cl)c1", "melting point": "43.5 to 44"}
{"smiles": "C=Cc1ccc(O)cc1", "melting point": "73 to 73.5"}
{"smiles": "O=C(O)C(Cl)(Cl)Cl", "melting point": "56 to 57.5"}
{"smiles": "Cc1ncc([N+](=O)[O-])n1CCO", "melting point": "159 to 160"}
{"smiles": "CC/C=C/CC", "melting point": "-115 to -113"}
{"smiles": "O=[N+]([O-])c1ccccc1Br", "melting point": "42 to 43"}
{"smiles": "Fc1c(F)c(F)c2c(F)c(F)c(F)c(F)c2c1F", "melting point": "87 to 87.5"}
{"smiles": "O=Cc1cccc(C(=O)O)c1", "melting point": "174 to 175"}
{"smiles": "COc1cccc(C(=O)NN)c1", "melting point": "92 to 94"}
{"smiles": "O=Cc1ccc(Oc2ccccc2)cc1", "melting point": "24.5 to 25"}
{"smiles": "CNc1ccc([N+](=O)[O-])cc1", "melting point": "152 to 153"}
{"smiles": "C=Cc1ccc(-c2ccccc2)cc1", "melting point": "116 to 119"}
{"smiles": "OCCCO", "melting point": "-27 to -26"}
{"smiles": "CCOc1cccc(OCC)c1", "melting point": "11 to 12.4"}
{"smiles": "Cc1nc2ccccc2s1", "melting point": "12 to 14"}
{"smiles": "COC(=O)c1c(Cl)c(Cl)c(C(=O)OC)c(Cl)c1Cl", "melting point": "155 to 157"}
{"smiles": "C=Cc1ccc(F)cc1", "melting point": "-36 to -34.5"}
{"smiles": "O=[N+]([O-])c1ccccc1CCl", "melting point": "47 to 51"}
{"smiles": "COCC(C)O", "note": "(stereo unspecified)", "melting point": "-100 to -95"}
{"smiles": "CCCCCCCCCc1ccc(O)cc1", "melting point": "42 to 45"}
{"smiles": "CCC(CC)C(C)(C)C", "melting point": "-99.3 to -99"}
{"smiles": "Cc1c(Cl)cccc1[N+](=O)[O-]", "melting point": "36 to 37.8"}
{"smiles": "CCCCCS", "melting point": "-76 to -75.7"}
{"smiles": "Oc1ccncc1", "melting point": "145 to 150"}
{"smiles": "Nc1cccc2ccccc12", "melting point": "48 to 49.2"}
{"smiles": "CC(C)(C)Br", "melting point": "-20 to -16"}
{"smiles": "O=c1c2ccccc2oc2ccccc12", "melting point": "175 to 176"}
{"smiles": "CC[C@H]1CC[C@H]2[C@@H]3CC[C@@H]4CCCC[C@]4(C)[C@H]3CC[C@]12C", "melting point": "83.5 to 84.5"}
{"smiles": "O=[N+]([O-])c1ccc2c(c1)Cc1ccccc1-2", "melting point": "156 to 157"}
{"smiles": "O=C(O)C1CSCN1", "note": "(stereo unspecified)", "melting point": "195 to 196"}
{"smiles": "C#CCCCC", "melting point": -132}
{"smiles": "CC12CCC3c4ccc(O)cc4CCC3C1CCC2O", "note": "(stereo unspecified)", "melting point": "173 to 178"}
{"smiles": "CCCCOC(=O)CCCCCCCCC(=O)OCCCC", "melting point": "-11 to -10"}
{"smiles": "Nc1ccc(S(=O)(=O)c2ccc(N)cc2)cc1", "melting point": "176 to 177"}
{"smiles": "COC(=O)c1cccc(I)c1", "melting point": "54 to 54.5"}
{"smiles": "ClCc1ccccc1Cl", "melting point": "-17 to -13"}
{"smiles": "CC(C)(CC(=O)O)CC(=O)O", "melting point": "101 to 104"}
{"smiles": "CCC(C)CC(O)CC", "note": "(stereo unspecified)", "melting point": "-91.2 to -91"}
{"smiles": "Oc1ccnc2ccccc12", "melting point": "201 to 203"}
{"smiles": "COc1cc(C=O)ccc1O", "melting point": "81.5 to 82"}
{"smiles": "CC1CCC(=O)CC1", "melting point": "-41 to -40.6"}
{"smiles": "CCOC(=O)CC", "melting point": "-73.9 to -73"}
{"smiles": "O=[N+]([O-])c1ccccc1-c1ccccc1", "melting point": "37 to 37.2"}
{"smiles": "O=[N+]([O-])c1cccc(I)c1", "melting point": "37 to 38.5"}
{"smiles": "COC", "melting point": "-142 to -138"}
{"smiles": "O=Cc1ccccc1", "melting point": "-56.9 to -55.6"}
